# Laboratory results taken from ChEMBL document CHEMBL5625174, “Are inhibitors of histone deacetylase 8 (HDAC8) effective in hematological cancers especially acute myeloid leukemia (AML) and acute lymphoblastic leukemia (ALL)?” (Eur J Med Chem, 2023).
# Square brackets hold non-standard residues; d marks the D form. Peptide text beside a SMILES is read from it. * marks the point of attachment. Asu = N[C@@H](CCCCCC(=O)O)C(=O)O; β3hL = CC(C)C[C@H](N)CC(=O)O; NHOH = ON*
# What was measured:
# [1] = Inhibition of HDAC6 (unknown origin) assessed as release of fluorogenic AMC pre-incubated for 15 mins followed by addition of trypsin and substrate measured after 60 mins microplate reader analysis; set-up: species or system Homo sapiens
# Jurkat [2] = assay: Cytotoxicity against human Jurkat cells assessed as reduction in cell viability measured after 24 hrs by Celltiter-Glo assay; assay type: functional, cell-based
# MCF7 = assay: Antiproliferative activity against human MCF7 cells assessed as reduction in cell viability incubated for 24 hrs by MTT assay; assay type: functional, cell-based; conditions: MCF7, 24 h
# MDA-MB-231 = assay: Antiproliferative activity against human MDA-MB-231 cells assessed as reduction in cell viability incubated for 24 hrs by MTT assay; assay type: functional, cell-based; conditions: MDA-MB-231, 24 h
# HeLa = assay: Growth inhibition of human HeLa cells incubated for 72 hrs by trypan blue assay; assay type: functional
# Jurkat E6.1 = assay: Cytotoxicity against human Jurkat E6.1 cells assessed as reduction in cell viability incubated for 72 hrs by MTT assay; assay type: functional, cell-based; conditions: Jurkat E6.1, 72 h
# Histone deacetylase 8 [3] = target: T1, Histone deacetylase 8 (Homo sapiens, UniProt Q9BY41); assay: Inhibition of human recombinant HDAC8 using fluorogenic HDAC substrate class 2A preincubated for 30 mins followed by substrate addition and measured after 15 mins by fluorogenic assay
# T1 sequence (Q9BY41 whole entry): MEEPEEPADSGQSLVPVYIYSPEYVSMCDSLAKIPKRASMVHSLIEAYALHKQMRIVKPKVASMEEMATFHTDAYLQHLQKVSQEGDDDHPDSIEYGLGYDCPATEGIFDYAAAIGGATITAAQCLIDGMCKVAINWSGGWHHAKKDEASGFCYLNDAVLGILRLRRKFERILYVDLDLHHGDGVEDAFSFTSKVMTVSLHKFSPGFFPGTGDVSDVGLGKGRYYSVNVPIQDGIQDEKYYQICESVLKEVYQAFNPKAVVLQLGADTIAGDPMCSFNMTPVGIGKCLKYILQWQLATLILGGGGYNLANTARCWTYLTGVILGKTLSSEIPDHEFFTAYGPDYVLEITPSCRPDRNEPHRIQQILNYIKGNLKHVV
# Histone deacetylase 4 [4] = target: T2, Histone deacetylase 4 (Homo sapiens, UniProt P56524); assay: Inhibition of HDAC4 (unknown origin)
# T2 sequence (P56524 whole entry): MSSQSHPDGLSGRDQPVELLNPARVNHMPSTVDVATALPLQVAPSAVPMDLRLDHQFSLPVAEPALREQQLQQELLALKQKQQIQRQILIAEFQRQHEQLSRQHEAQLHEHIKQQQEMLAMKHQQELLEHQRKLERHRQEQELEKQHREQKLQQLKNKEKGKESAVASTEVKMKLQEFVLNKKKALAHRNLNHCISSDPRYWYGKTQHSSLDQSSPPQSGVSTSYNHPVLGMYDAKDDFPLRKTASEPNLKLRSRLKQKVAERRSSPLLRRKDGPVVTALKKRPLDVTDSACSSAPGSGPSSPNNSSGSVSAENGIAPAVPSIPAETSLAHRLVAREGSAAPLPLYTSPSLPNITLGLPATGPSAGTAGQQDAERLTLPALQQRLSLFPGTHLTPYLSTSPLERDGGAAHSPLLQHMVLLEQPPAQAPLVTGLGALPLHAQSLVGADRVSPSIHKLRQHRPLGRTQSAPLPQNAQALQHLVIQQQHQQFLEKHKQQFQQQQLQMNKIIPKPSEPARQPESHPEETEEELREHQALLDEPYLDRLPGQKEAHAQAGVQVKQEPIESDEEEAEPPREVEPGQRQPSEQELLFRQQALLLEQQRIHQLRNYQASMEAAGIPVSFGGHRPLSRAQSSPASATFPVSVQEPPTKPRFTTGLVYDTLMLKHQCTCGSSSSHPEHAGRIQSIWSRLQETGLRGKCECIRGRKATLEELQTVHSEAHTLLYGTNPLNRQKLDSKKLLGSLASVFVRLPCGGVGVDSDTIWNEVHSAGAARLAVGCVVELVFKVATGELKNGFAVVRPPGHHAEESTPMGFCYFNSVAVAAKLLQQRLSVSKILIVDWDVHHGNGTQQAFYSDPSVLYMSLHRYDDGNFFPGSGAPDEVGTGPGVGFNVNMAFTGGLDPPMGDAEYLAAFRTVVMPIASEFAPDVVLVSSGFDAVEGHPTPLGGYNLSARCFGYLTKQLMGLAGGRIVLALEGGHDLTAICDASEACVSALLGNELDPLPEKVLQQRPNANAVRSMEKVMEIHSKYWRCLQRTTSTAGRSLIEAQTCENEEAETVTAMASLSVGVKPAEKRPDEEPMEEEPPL
# THP-1 = assay: cells; assay type: functional; conditions: Homo sapiens
# Description: Growth inhibition of human THP-1 cells
# Jurkat [5] = assay: cells; assay type: functional; conditions: Homo sapiens
# Description: Growth inhibition of human Jurkat cells
# MOLT-4 = assay: cells; assay type: functional; conditions: Homo sapiens, time 24 hrs
# Description: Growth inhibition of human MOLT-4 cells measured after 24 hrs by MTT assay
# [6] = target: T3, Polyamine deacetylase HDAC10 (Homo sapiens, UniProt Q969S8); assay: Inhibition of HDAC10 (unknown origin)
# T3 sequence (Q969S8 whole entry): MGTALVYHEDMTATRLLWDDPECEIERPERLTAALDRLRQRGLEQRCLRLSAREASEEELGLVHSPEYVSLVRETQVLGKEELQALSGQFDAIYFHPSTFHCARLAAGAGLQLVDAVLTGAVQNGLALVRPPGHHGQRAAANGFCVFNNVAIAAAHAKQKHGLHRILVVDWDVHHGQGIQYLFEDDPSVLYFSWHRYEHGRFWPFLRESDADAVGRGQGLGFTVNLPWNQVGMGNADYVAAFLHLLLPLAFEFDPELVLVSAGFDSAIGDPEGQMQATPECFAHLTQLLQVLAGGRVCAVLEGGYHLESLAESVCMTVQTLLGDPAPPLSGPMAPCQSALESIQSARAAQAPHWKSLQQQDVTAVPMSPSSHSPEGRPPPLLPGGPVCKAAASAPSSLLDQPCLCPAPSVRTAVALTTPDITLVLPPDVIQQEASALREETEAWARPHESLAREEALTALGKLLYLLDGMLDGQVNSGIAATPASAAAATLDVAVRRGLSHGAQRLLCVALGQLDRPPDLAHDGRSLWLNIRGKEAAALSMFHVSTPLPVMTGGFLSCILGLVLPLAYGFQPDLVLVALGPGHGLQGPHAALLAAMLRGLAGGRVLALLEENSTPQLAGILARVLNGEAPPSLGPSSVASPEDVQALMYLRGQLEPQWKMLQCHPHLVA
# Histone deacetylase 8 [7] = target: T1, Histone deacetylase 8; assay: Inhibition of human recombinant HDAC8 using AMC-K(Ac)GL as substrate by fluorescence based assay
# Histone deacetylase 3 = Histone deacetylase 3 (Homo sapiens, UniProt O15379); assay: Inhibition of HDAC3 (unknown origin) assessed as release of fluorogenic AMC pre-incubated for 15 mins followed by addition of trypsin and substrate measured after 60 mins microplate reader analysis
# Chain of Histone deacetylase 3 (O15379 whole entry): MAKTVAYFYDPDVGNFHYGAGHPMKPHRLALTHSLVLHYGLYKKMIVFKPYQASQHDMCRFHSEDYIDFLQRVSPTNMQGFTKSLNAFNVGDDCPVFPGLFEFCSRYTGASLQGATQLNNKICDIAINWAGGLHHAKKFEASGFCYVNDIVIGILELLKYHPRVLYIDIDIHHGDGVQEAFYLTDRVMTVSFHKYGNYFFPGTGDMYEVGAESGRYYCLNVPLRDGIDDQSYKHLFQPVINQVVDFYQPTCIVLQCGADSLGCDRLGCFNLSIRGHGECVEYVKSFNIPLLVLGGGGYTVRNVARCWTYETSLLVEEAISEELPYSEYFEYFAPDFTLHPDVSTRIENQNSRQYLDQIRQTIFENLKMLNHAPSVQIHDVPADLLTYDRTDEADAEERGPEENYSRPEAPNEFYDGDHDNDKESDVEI
# Histone deacetylase 2 = Histone deacetylase 2 (Homo sapiens, UniProt Q92769); assay: Inhibition of HDAC2 (unknown origin) assessed as release of fluorogenic AMC pre-incubated for 15 mins followed by addition of trypsin and substrate measured after 60 mins microplate reader analysis
# Chain of Histone deacetylase 2 (Q92769 whole entry): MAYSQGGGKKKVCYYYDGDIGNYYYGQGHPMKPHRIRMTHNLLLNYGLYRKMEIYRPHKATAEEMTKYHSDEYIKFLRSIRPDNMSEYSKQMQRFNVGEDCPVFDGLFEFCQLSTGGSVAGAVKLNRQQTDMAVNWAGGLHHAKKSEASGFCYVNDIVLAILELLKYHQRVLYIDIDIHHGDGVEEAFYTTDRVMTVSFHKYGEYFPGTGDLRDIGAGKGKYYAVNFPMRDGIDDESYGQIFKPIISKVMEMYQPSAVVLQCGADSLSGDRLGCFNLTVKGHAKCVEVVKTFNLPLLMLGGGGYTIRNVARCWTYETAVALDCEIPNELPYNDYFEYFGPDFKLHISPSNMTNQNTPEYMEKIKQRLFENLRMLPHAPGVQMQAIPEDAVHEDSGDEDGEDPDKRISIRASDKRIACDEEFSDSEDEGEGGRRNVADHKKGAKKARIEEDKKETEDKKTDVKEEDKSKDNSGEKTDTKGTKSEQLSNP
# [8] = target: T3, Polyamine deacetylase HDAC10; assay: Inhibition of HDAC10 (unknown origin) assessed as release of fluorogenic AMC pre-incubated for 15 mins followed by addition of trypsin and substrate measured after 60 mins microplate reader analysis
# Histone deacetylase 1 = Histone deacetylase 1 (Homo sapiens, UniProt Q13547); assay: Inhibition of HDAC1 (unknown origin) using Ac-Leu-Gly-Lys(Ac)-AMC as substrate pre-incubated for 30 mins followed by substrate addition and measured after 30 mins by fluorescence based analysis
# Chain of Histone deacetylase 1 (Q13547 whole entry): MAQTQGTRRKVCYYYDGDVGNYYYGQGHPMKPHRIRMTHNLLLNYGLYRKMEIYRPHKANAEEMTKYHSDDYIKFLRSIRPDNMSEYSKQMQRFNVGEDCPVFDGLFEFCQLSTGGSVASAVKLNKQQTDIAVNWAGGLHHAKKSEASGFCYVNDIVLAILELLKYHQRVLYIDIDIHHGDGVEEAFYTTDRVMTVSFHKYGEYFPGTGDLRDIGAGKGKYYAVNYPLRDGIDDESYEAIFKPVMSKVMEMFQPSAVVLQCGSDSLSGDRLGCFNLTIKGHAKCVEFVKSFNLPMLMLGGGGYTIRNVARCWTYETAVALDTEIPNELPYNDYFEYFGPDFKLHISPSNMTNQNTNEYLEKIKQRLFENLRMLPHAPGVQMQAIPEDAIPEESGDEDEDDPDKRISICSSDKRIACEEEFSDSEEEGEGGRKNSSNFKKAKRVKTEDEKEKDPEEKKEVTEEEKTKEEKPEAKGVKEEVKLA
# Jurkat [9] = assay: Cytotoxicity against human Jurkat cells assessed as reduction in cell viability incubated for 24 hrs by CellTiter-Glo luminescent cell viability assay; assay type: functional
# Histone deacetylase 8 [10] = target: T1, Histone deacetylase 8; assay: Inhibition of HDAC8 (unknown origin)
# Histone deacetylase 4 [11] = target: T2, Histone deacetylase 4; assay: Inhibition of HDAC4 (unknown origin) assessed as release of fluorogenic AMC pre-incubated for 15 mins followed by addition of trypsin and substrate measured after 60 mins microplate reader analysis
# Histone deacetylase 8 [12] = target: T1, Histone deacetylase 8; assay: Inhibition of HDAC8 (unknown origin) assessed as release of fluorogenic AMC pre-incubated for 15 mins followed by addition of trypsin and substrate measured after 60 mins microplate reader analysis
smiles,measurement,setting,value
N[C@H](Cc1cccc(Cl)c1)C(=O)N1CCN(C(=O)c2cc(F)ccc2F)CC1,IC50,[1],> 30 µM
O=C(CCCCCN1C(=O)c2cccc3cccc(c23)C1=O)NO,IC50,Jurkat [2],6.1 µM
COc1ccc(/C=C/C(=O)NO)c(-c2ccc3c(c2)OCO3)c1,IC50,MCF7,7.7 µM
same,IC50,MDA-MB-231,9.5 µM
same,GI50,HeLa,2 µM
O=C(CC[C@H](NC(=O)Cc1ccc(Cl)cc1Cl)C(=O)Nc1ccccc1)NO,IC50,Jurkat E6.1,< 50 µM
CCCCCNC(=O)[C@H](CCC(=O)NO)NC(=O)Cc1ccc(Cl)cc1,IC50,Jurkat E6.1,< 50 µM
CCCCCNC(=O)[C@H](CCC(=O)NO)NC(=O)Cc1ccccc1Br,IC50,Jurkat E6.1,> 50 µM
CSCC[C@H]1NCC(=O)NC1=O,IC50,Histone deacetylase 8 [3],0.0797 µM
COc1ccc(/C=C/C(=O)NO)c(-c2ccc(-c3ccccc3)cc2)c1,IC50,[1],> 20 µM
O=C1CN[C@@H](Cc2cc3ccccc3[nH]2)C(=O)N1,IC50,Histone deacetylase 8 [3],0.0108 µM
O=C(/C=C/c1cccc(S(=O)(=O)Nc2ccccc2)c1)NO [BELINOSTAT],IC50,Histone deacetylase 4 [4],0.015 µM
same,GI50,THP-1,0.075 µM
same,GI50,Jurkat [5],0.11 µM
same,GI50,MOLT-4,0.12 µM
same,IC50,[6],0.059 µM
CCCCCCNC(=O)[C@H](CCC(=O)NO)NC(=O)Cc1ccc(Br)cc1,IC50,Jurkat E6.1,< 50 µM
CC(C)C[C@H]1CC(=O)N[C@@H](C)C(=O)N[C@@H](CCCCCC(=O)NO)C(=O)N[C@@H](Cc2c[nH]c3ccccc23)C(=O)N1 (cyclo([Asu](NHOH)W[β3hL]A)),IC50,Histone deacetylase 8 [7],0.12 µM
O=C(NO)c1cccc(-c2csc(CSc3ccccc3)n2)c1,GI50,Jurkat [5],2 µM
CCCCNC(=O)[C@H](CCC(=O)NO)NC(=O)Cc1ccc(Cl)cc1Cl,IC50,Jurkat E6.1,< 50 µM
COc1ccc(/C=C/C(=O)NO)c(-c2ccc(Br)cc2)c1,IC50,Histone deacetylase 3,4.8 µM
same,IC50,Histone deacetylase 2,> 20 µM
same,IC50,[8],> 20 µM
same,IC50,[1],> 20 µM
same,IC50,Histone deacetylase 1,4.5 µM
O=C(NO)c1cccc(-c2nc(CSc3ccccc3)no2)c1,IC50,Histone deacetylase 8 [7],0.12 µM
O=C(/C=C/C#Cc1cccc(NS(=O)(=O)c2ccccc2)c1)NO,CC50,Jurkat [9],5.9 µM
COc1ccc(-c2cccc(-c3cc(OC)c(OC)c(OC)c3)n2)cc1/C=C/C(=O)NO,IC50,Histone deacetylase 8 [10],0.117 µM
CCCCNC(=O)[C@H](CCC(=O)NO)NC(=O)Cc1ccc([N+](=O)[O-])cc1,IC50,Jurkat E6.1,< 50 µM
O=C(NO)[C@@H](Cc1ccccc1)n1nnc(-c2ccccc2)c1C#CC1CC1,IC50,Histone deacetylase 3,> 20 µM
same,IC50,Histone deacetylase 2,> 20 µM
same,IC50,[8],> 20 µM
same,IC50,Histone deacetylase 4 [11],> 20 µM
same,IC50,[1],1.2 µM
same,IC50,Histone deacetylase 8 [12],0.0008 µM
same,IC50,Histone deacetylase 1,4.3 µM
CCCCNC(=O)[C@H](CCC(=O)NO)NC(=O)Cc1ccc(Cl)cc1,IC50,Jurkat E6.1,< 50 µM
